O=[N+]([O-])c1cc(F)c(F)cc1[N+](=O)[O-]
solubility (mole fraction)
Settings	293.15 K	298.15 K	303.15 K	308.15 K	313.15 K	318.15 K	323.15 K	328.15 K	333.15 K
in 1,2-dichloroethane	0.000981	0.00112	0.00128	0.00171	0.00229	0.00314	0.00416	0.00553	0.00752
in benzene	0.00143	0.00152	0.00173	0.00216	0.00286	0.00384	0.00499	0.00647	0.0086
in chloroform	0.000875	0.000957	0.00111	0.00156	0.00237	0.00339	0.00456	0.00611	–
in ethanol	0.00011	0.00014	0.000166	0.000246	0.000339	0.00047	0.000662	0.000906	0.00121
in ethyl acetate	0.0019	0.00215	0.00241	0.0028	0.00342	0.00433	0.00554	0.00735	0.00951
in ethyl formate	0.00271	0.00284	0.00303	0.00339	0.00402	0.00493	0.00613	0.00775	0.01
in isopropanol	3.1e-05	5e-05	6.4e-05	8.9e-05	0.000123	0.000164	0.000215	0.000296	0.00038
in m-xylene	0.00176	0.00206	0.00248	0.00303	0.00368	0.00444	0.00531	0.0062	0.00722
in mesitylene	0.00238	0.00259	0.00279	0.00309	0.00348	0.00397	0.00459	0.0055	0.00652
in methanol	0.00019	0.000263	0.000324	0.000401	0.000504	0.000632	0.000774	0.000956	0.00121
in n-butanol	3.8e-05	6e-05	9.5e-05	0.000142	0.000198	0.000278	0.000384	0.000546	0.000785
in n-propanol	4.5e-05	6.1e-05	8.5e-05	0.00012	0.000186	0.000278	0.000413	0.000595	0.00083
in o-xylene	0.00213	0.00236	0.00277	0.00327	0.00377	0.00441	0.00513	0.00598	0.00701
in p-xylene	0.00172	0.00199	0.00228	0.00267	0.00323	0.00395	0.00494	0.00647	0.0085
in tetrachloromethane	–	2.2e-05	4.7e-05	9.5e-05	0.000168	0.000276	0.000426	0.000614	0.000854
in toluene	0.00135	0.00154	0.00201	0.00268	0.00349	0.00448	0.00551	0.00669	0.00781

Source: BigSolDB 2.1
